Each structure is given as a SMILES string. Where a SMILES comes first, the peptide text is derived from it. The star is where a group is joined. Octanoyl = CCCCCCCC(=O)*; Boc = CC(C)(C)OC(=O)*

The test system of this assay is SARS-CoV-2. The assay is described as follows: Antiviral activity against SARS-CoV-2 Wuhan 5-2N variant infected in African green monkey Vero E6 cells measured for 3 days by WST-8 assay. To be noted: Severe acute respiratory syndrome coronavirus 2, Wuhan 5-2N, Vero C1008, 72 h. It counts as functional, organism-based.
As for `CC(=O)NCC(=O)N[C@@H](Cc1ccccc1)C(=O)N[C@H](C=O)Cc1c[nH]cn1` (Ac-Gly-Phe-His-aldehyde), the half-maximal effective concentration (EC50) was 66.1 µM.
The result for `CC(C)(C)OC(=O)NCC(=O)N[C@@H](Cc1ccccc1)C(=O)N[C@H](C=O)Cc1c[nH]cn1` (Boc-Gly-Phe-His-aldehyde) reads 5 µM; that for `CCCCCCCC(=O)NCC(=O)N[C@@H](Cc1ccccc1)C(=O)N[C@H](C=O)Cc1c[nH]cn1` (Octanoyl-Gly-Phe-His-aldehyde), 5 µM.

Broadly, the EC50 is the concentration giving half of the maximal effect.

These data come from ChEMBL document CHEMBL6120938, “Covalent small-molecule inhibitors of SARS-CoV-2 Mpro: Insights into their design, classification, biological activity, and binding interactions” (Eur J Med Chem, 2024).
